“And” between values parts separate entries of the source, which are not always exact repeats. Identical values can stand only once.
What was measured:
PYR1^WIN-M = target: T1, PYR1^WIN-M (Arabidopsis thaliana, UniProt O49686, A160I/D26G/E4G/F159A/H60P/K59Q/N90S/Y23H); test: ELISA-like plate assay, immobilized PYR1^WIN-M, biotinylated ΔN-HAB1^T+; type: binding; conditions: for ELISA signal generation, receptor cross-reactivity (source data): replicates; for LOD (lower limit of detection): fivefold dilution
T1 construct: made in house
T1 sequence (O49686 with tags, fused parts or gaps E4G/Y23H/D26G/K59Q/H60P/N90S/F159A/A160I): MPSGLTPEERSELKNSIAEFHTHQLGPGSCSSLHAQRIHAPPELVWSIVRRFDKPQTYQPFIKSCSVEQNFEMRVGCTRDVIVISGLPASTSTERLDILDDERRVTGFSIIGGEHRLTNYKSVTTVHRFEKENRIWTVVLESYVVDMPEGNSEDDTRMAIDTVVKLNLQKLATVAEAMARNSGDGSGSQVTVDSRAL

PYR1^DIAZI = PYR1^DIAZI (Arabidopsis thaliana, UniProt O49686, A160V/E8G/F108Y/F159G/L87M/M158V/V81Y); test: Split NanoLuc luciferase complementation in yeast, NLuc^N-PYR1^DIAZI/NLuc^C-HAB1;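 as to split luciferase luminescence (Fig. 4c source data): relative luminescence averaged over the signal plateau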; type: cell-based; parameters: >PYR1-DIAZI; expressed in transfected cells; host or cells: Saccharomyces cerevisiae BY4742; conditions: for Sensor signal (Figure 4f top), replicate values: 3 replicates; for split luciferase luminescence (Fig. 4c source data): ligand diazinon, replicates
PYR1^PIRI = target: T2, PYR1^PIRI (Arabidopsis thaliana, UniProt O49686, A160T/E130G/F159T/K59R/N119S/S122Q/S92M/V174A); test: Split NanoLuc luciferase complementation in yeast, NLuc^N-PYR1^PIRI/NLuc^C-HAB1;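 as to split luciferase luminescence (Fig. 4c source data): relative luminescence averaged over the signal plateau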; type: cell-based; conditions: replicates; for split luciferase luminescence (Fig. 4c source data): ligand pirimiphos-methyl
T2 construct: >PYR1-PIRI; expressed in transfected cells; host or cells: Saccharomyces cerevisiae BY4742
T2 sequence (O49686 other isoform, or with tags, fused parts or gaps K59R/S92M/N119S/S122Q/E130G/F159T/A160T/V174A): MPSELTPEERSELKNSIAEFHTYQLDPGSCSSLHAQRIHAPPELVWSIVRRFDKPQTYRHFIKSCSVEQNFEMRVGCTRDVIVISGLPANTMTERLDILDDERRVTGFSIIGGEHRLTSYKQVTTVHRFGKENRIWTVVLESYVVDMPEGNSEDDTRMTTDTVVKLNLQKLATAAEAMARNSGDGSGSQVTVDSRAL
T2 sequence (Q9CAJ0 179-511, further chain): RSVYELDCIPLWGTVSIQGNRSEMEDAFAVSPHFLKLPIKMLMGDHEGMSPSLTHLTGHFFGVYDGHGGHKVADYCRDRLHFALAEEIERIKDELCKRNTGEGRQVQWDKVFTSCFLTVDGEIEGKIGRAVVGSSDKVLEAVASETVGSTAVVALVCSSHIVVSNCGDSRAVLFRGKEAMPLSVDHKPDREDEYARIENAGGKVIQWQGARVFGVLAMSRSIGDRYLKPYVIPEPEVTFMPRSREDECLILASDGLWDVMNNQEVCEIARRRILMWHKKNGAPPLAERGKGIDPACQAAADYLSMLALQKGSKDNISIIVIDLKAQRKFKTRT

Sequence of PYR1^DIAZI (Q9CAJ0 179-511): as the sequence (Q9CAJ0 179-511, further chain) above
Sequence of PYR1^DIAZI (O49686 other isoform, or with tags, fused parts or gaps E8G/V81Y/L87M/F108Y/M158V/F159G/A160V): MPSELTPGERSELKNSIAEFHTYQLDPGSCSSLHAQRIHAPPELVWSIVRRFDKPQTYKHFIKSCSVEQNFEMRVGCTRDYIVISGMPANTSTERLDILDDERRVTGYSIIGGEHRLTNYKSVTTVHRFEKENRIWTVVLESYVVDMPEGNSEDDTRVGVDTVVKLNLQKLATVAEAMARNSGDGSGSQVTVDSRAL

## O=C(Nc1cccc2cccnc12)c1cn(CCCCCF)c2ccccc12 [AM2201, AM2201 8-quinolinyl carboxamide]
PYR1^WIN-M; cannabinoid at 2 nM
  ELISA signal generation, receptor cross-reactivity (source data): 0.169 and 0.127 and 0.144
PYR1^WIN-M; cannabinoid at 2 μM
  ELISA signal generation, receptor cross-reactivity (source data): 0.112 and 0.114 and 0.096

## C=C(C)[C@@H]1CCC(C)=C[C@H]1c1c(O)cc(CCCCC)cc1O [Cannabidiol]
PYR1^WIN-M; cannabinoid at 2 nM
  ELISA signal generation, receptor cross-reactivity (source data): 0.109 and 0.094 and 0.096
PYR1^WIN-M; cannabinoid at 2 μM
  ELISA signal generation, receptor cross-reactivity (source data): 0.095 and 0.093 and 0.084

## CCOP(=S)(OCC)Oc1ccc2c(C)c(Cl)c(=O)oc2c1 [Coumaphos]
PYR1^DIAZI; [Agonist] 1e-5 nM
  Sensor signal (Figure 4f top), replicate values: 16.388 and 9.752 and 14.788
PYR1^DIAZI; [Agonist] 0.5 nM
  Sensor signal (Figure 4f top), replicate values: 30.8829 and 12.1724 and 17.852
PYR1^DIAZI; [Agonist] 1 nM
  Sensor signal (Figure 4f top), replicate values: 36.8131 and 33.8683 and 15.2635
PYR1^DIAZI; [Agonist] 10 nM
  Sensor signal (Figure 4f top), replicate values: 15.4966 and 64.9896 and 15.1391
PYR1^DIAZI; [Agonist] 100 nM
  Sensor signal (Figure 4f top), replicate values: 12.996 and 65.6413 and 15.942
PYR1^DIAZI; [Agonist] 1000 nM
  Sensor signal (Figure 4f top), replicate values: 21.5139 and 73.8437 and 25.5745
PYR1^DIAZI; [Agonist] 10000 nM
  Sensor signal (Figure 4f top), replicate values: 81.7848 and 47.8146 and 79.9027
PYR1^DIAZI; [Agonist] 100000 nM
  Sensor signal (Figure 4f top), replicate values: 105.044 and 22.805 and 29.2791
PYR1^PIRI; [Agonist] 1e-5 nM
  Sensor signal (Figure 4f bottom), replicate values: 11.6429 and 18.6581 and 9.869
PYR1^PIRI; [Agonist] 0.5 nM
  Sensor signal (Figure 4f bottom), replicate values: 10.5853 and 39.7892 and 9.475
PYR1^PIRI; [Agonist] 1 nM
  Sensor signal (Figure 4f bottom), replicate values: 12.0486 and 19.9282 and 8.797
PYR1^PIRI; [Agonist] 10 nM
  Sensor signal (Figure 4f bottom), replicate values: 7.164 and 12.4287 and 9.583
PYR1^PIRI; [Agonist] 100 nM
  Sensor signal (Figure 4f bottom), replicate values: 8.8955 and 12.6369 and 17.1023
PYR1^PIRI; [Agonist] 1000 nM
  Sensor signal (Figure 4f bottom), replicate values: 9.4868 and 11.2169 and 22.673
PYR1^PIRI; [Agonist] 10000 nM
  Sensor signal (Figure 4f bottom), replicate values: 12.3815 and 19.3959 and 83.5281
PYR1^PIRI; [Agonist] 100000 nM
  Sensor signal (Figure 4f bottom), replicate values: 9.584 and 13.286 and 71.6379

## CCCCCn1cc(C(=O)c2cccc3ccccc23)cc1-c1ccccc1 [JWH-145]
PYR1^WIN-M; cannabinoid at 2 nM
  ELISA signal generation, receptor cross-reactivity (source data): 0.469 and 0.077 and 0.091
PYR1^WIN-M; cannabinoid at 2 μM
  ELISA signal generation, receptor cross-reactivity (source data): 0.105 and 0.116 and 0.1

## CCCCCn1cc(C(=O)Cc2ccccc2)c2ccccc21 [JWH-167]
PYR1^WIN-M; cannabinoid at 2 nM
  ELISA signal generation, receptor cross-reactivity (source data): 0.146 and 0.078 and 0.09
PYR1^WIN-M; cannabinoid at 2 μM
  ELISA signal generation, receptor cross-reactivity (source data): 0.075 and 0.092 and 0.077

## CCCc1ccc(C(=O)c2cn(CCC)c3ccccc23)c2ccccc12 [JWH-180]
PYR1^WIN-M; cannabinoid at 2 nM
  ELISA signal generation, receptor cross-reactivity (source data): 0.104 and 0.071 and 0.083
PYR1^WIN-M; cannabinoid at 2 μM
  ELISA signal generation, receptor cross-reactivity (source data): 0.08 and 0.088 and 0.087

## Cc1ccc(C(=O)c2cn(CCN3CCOCC3)c3ccccc23)c2ccccc12 [JWH-193]
PYR1^WIN-M; cannabinoid at 2 nM
  ELISA signal generation, receptor cross-reactivity (source data): 0.065 and 0.104 and 0.068
PYR1^WIN-M; cannabinoid at 2 μM
  ELISA signal generation, receptor cross-reactivity (source data): 0.07 and 0.084 and 0.11

## CCCCCn1cc(C(=O)c2cccc3ccccc23)cc1-c1ccccc1C [JWH-370]
PYR1^WIN-M; cannabinoid at 2 nM
  ELISA signal generation, receptor cross-reactivity (source data): 0.069 and 0.076 and 0.063
PYR1^WIN-M; cannabinoid at 2 μM
  ELISA signal generation, receptor cross-reactivity (source data): 0.06 and 0.059 and 0.063

## CCCCCn1cc(C(=O)N2CCN(C)CC2)c2ccccc21 [Mepirapim]
PYR1^WIN-M; cannabinoid at 2 nM
  ELISA signal generation, receptor cross-reactivity (source data): 0.117 and 0.158 and 0.176
PYR1^WIN-M; cannabinoid at 2 μM
  ELISA signal generation, receptor cross-reactivity (source data): 0.111 and 0.116 and 0.103

## CCCCCn1cc(-c2nc(CN(CC)CC)cs2)c2ccccc21 [PTI-1]
PYR1^WIN-M; cannabinoid at 2 nM
  ELISA signal generation, receptor cross-reactivity (source data): 0.097 and 0.112 and 0.193
PYR1^WIN-M; cannabinoid at 2 μM
  ELISA signal generation, receptor cross-reactivity (source data): 0.105 and 0.089 and 0.091

## CCOP(=O)(OCC)Oc1ccc([N+](=O)[O-])cc1 [Paraoxon]
PYR1^DIAZI; [Agonist] 1e-5 nM
  Sensor signal (Figure 4f top), replicate values: 10.8821 and 10.8818 and 16.2674
PYR1^DIAZI; [Agonist] 0.5 nM
  Sensor signal (Figure 4f top), replicate values: 11.8181 and 17.5251 and 16.6639
PYR1^DIAZI; [Agonist] 1 nM
  Sensor signal (Figure 4f top), replicate values: 24.3604 and 44.2392 and 23.2398
PYR1^DIAZI; [Agonist] 10 nM
  Sensor signal (Figure 4f top), replicate values: 60.5829 and 64.6146 and 19.0156
PYR1^DIAZI; [Agonist] 100 nM
  Sensor signal (Figure 4f top), replicate values: 14.8147 and 62.8846 and 19.484
PYR1^DIAZI; [Agonist] 1000 nM
  Sensor signal (Figure 4f top), replicate values: 35.1388 and 74.2295 and 30.1748
PYR1^DIAZI; [Agonist] 10000 nM
  Sensor signal (Figure 4f top), replicate values: 83.5675 and 57.6349 and 70.6242
PYR1^DIAZI; [Agonist] 100000 nM
  Sensor signal (Figure 4f top), replicate values: 100.899 and 20.8486 and 98.4357
PYR1^PIRI; [Agonist] 1e-5 nM
  Sensor signal (Figure 4f bottom), replicate values: 11.9047 and 18.1515 and 10.4931
PYR1^PIRI; [Agonist] 0.5 nM
  Sensor signal (Figure 4f bottom), replicate values: 11.0975 and 13.4157 and 8.837
PYR1^PIRI; [Agonist] 1 nM
  Sensor signal (Figure 4f bottom), replicate values: 12.5918 and 18.7436 and 9.615
PYR1^PIRI; [Agonist] 10 nM
  Sensor signal (Figure 4f bottom), replicate values: 11.1224 and 13.1225 and 9.775
PYR1^PIRI; [Agonist] 100 nM
  Sensor signal (Figure 4f bottom), replicate values: 10.0591 and 11.6876 and 14.7625
PYR1^PIRI; [Agonist] 1000 nM
  Sensor signal (Figure 4f bottom), replicate values: 10.1585 and 20.7126 and 25.0764
PYR1^PIRI; [Agonist] 10000 nM
  Sensor signal (Figure 4f bottom), replicate values: 13.1804 and 18.2375 and 74.7884
PYR1^PIRI; [Agonist] 100000 nM
  Sensor signal (Figure 4f bottom), replicate values: 12.8083 and 10.7531 and 85.8371

## CCCCCc1cc(O)c2c(c1)OC(C)(C)[C@@H]1CCC(C)=C[C@@H]21 [Δ^9-THC, tetrahydrocannabinol]
PYR1^WIN-M; cannabinoid at 2 nM
  ELISA signal generation, receptor cross-reactivity (source data): 0.105 and 0.137 and 0.097
PYR1^WIN-M; cannabinoid at 2 μM
  ELISA signal generation, receptor cross-reactivity (source data): 0.116 and 0.081 and 0.066

B1: PYR1-diazi: diazinon-responsive heptuple PYR1 mutant (E8G, V81Y, L87M, F108Y, M158V, F159G, A160V) (protein)
chain: MPSELTPGERSELKNSIAEFHTYQLDPGSCSSLHAQRIHAPPELVWSIVRRFDKPQTYKHFIKSCSVEQNFEMRVGCTRDYIVISGMPANTSTERLDILDDERRVTGYSIIGGEHRLTNYKSVTTVHRFEKENRIWTVVLESYVVDMPEGNSEDDTRVGVDTVVKLNLQKLATVAEAMARNSGDGSGSQVT
modifications: left off: Gal4 DNA-binding domain (from the vector pBD), end not stated, kept
PYR1^DIAZI; [Ligand] (uM) 0.01
  split luciferase luminescence (Fig. 4c source data): 2.821 and 4.017 and 3.928
PYR1^DIAZI; [Ligand] (uM) 0.1
  split luciferase luminescence (Fig. 4c source data): 3.172 and 4.215 and 4.029
PYR1^DIAZI; [Ligand] (uM) 1
  split luciferase luminescence (Fig. 4c source data): 4.479 and 4.68 and 4.503
PYR1^DIAZI; [Ligand] (uM) 10
  split luciferase luminescence (Fig. 4c source data): 10.058 and 10.652 and 11.029
PYR1^DIAZI; [Ligand] (uM) 100
  split luciferase luminescence (Fig. 4c source data): 21.801 and 16.912 and 16.034
PYR1^DIAZI; [Ligand] (uM) 1000
  split luciferase luminescence (Fig. 4c source data): 25.73 and 20.742 and 19.283
PYR1^DIAZI; [Ligand] (uM) 10000
  split luciferase luminescence (Fig. 4c source data): 25.492 and 21.692 and 23.422

B2: PYR1-pirimi: pirimiphos-responsive octuple PYR1 mutant (K59R, S92M, N119S, S122Q, E130G, F159T, A160T, V174A) (protein, UniProt O49686 1-191, looked up, variant K59R S92M N119S S122Q E130G F159T A160T V174A)
Abscisic acid receptor PYR1: MPSELTPEERSELKNSIAEFHTYQLDPGSCSSLHAQRIHAPPELVWSIVRRFDKPQTYRHFIKSCSVEQNFEMRVGCTRDVIVISGLPANTMTERLDILDDERRVTGFSIIGGEHRLTSYKQVTTVHRFGKENRIWTVVLESYVVDMPEGNSEDDTRMTTDTVVKLNLQKLATAAEAMARNSGDGSGSQVT
PYR1^PIRI; [Ligand] 0.01
  split luciferase luminescence (Fig. 4c source data): 2.798 and 2.193 and 2.504
PYR1^PIRI; [Ligand] 0.1
  split luciferase luminescence (Fig. 4c source data): 2.824 and 1.934 and 2.89
PYR1^PIRI; [Ligand] 1
  split luciferase luminescence (Fig. 4c source data): 4.065 and 3.256 and 4.278
PYR1^PIRI; [Ligand] 10
  split luciferase luminescence (Fig. 4c source data): 10.289 and 6.672 and 8.183
PYR1^PIRI; [Ligand] 100
  split luciferase luminescence (Fig. 4c source data): 22.748 and 20.257 and 17.606
PYR1^PIRI; [Ligand] 1000
  split luciferase luminescence (Fig. 4c source data): 23.566 and 22.462 and 20.41
PYR1^PIRI; [Ligand] 10000
  split luciferase luminescence (Fig. 4c source data): 23.974 and 20.5 and 20.202

B3: PYR1^WIN-M: monomeric PYR1-WIN for ELISA: Y23H, D26G, K59Q, H60P, N90S, F159A, A160I (protein, UniProt O49686 1-191, looked up, variant Y23H D26G K59Q H60P N90S F159A A160I)
Abscisic acid receptor PYR1: MPSELTPEERSELKNSIAEFHTHQLGPGSCSSLHAQRIHAPPELVWSIVRRFDKPQTYQPFIKSCSVEQNFEMRVGCTRDVIVISGLPASTSTERLDILDDERRVTGFSIIGGEHRLTNYKSVTTVHRFEKENRIWTVVLESYVVDMPEGNSEDDTRMAIDTVVKLNLQKLATVAEAMARNSGDGSGSQVT
PYR1^WIN-M; spiked blood serum
  LOD (lower limit of detection): 1,105 pM
PYR1^WIN-M; spiked saliva
  LOD (lower limit of detection): 305 pM
PYR1^WIN-M; spiked urine
  LOD (lower limit of detection): 515 pM
